In patent publication US12577247B2 (BUGWORKS RESEARCH, INC., priority 2021, dated 2026):

How the values were obtained:
[1] = target: T1, A2B receptor (Homo sapiens, UniProt P29275); experiment: A2bR antagonism IC50, cAMP TR-FRET in HEK-293 cells, high concentration of adenosine (30 μM); details: A2BR IC50 (nM) (@30 μM Adenosine), HEK-293 cells expressing A2B receptor; agonist adenosine 30 μM; 2% HSA; inhibition of cAMP;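 also: compounds preincubated 10 min with cells, then adenosine stimulation 30 min at room temperature in buffer with Rolipram 100 µM and EHNA 30 µM, TR-FRET read after 1 h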
T1 sequence (P29275 1-332): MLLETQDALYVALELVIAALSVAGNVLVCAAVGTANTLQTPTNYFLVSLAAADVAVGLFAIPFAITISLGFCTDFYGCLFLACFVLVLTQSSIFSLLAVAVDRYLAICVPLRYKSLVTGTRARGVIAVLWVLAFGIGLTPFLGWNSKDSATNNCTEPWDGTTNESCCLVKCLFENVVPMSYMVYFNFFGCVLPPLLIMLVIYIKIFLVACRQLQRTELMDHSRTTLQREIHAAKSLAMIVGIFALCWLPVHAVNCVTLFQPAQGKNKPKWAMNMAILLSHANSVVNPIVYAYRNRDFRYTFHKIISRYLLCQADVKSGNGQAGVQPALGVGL
Procedure: (§1) A Time-Resolved Fluorescence Energy Transfer (TR-FRET) assay was used to show the inhibition of this cAMP production in HEK cells upon treatment with compounds of the Formula I of the present disclosure.
(§2) HEK-293 cells expressing A2A receptor (#ES-011-C) or A2B receptor (#ES 013-C) were obtained from PerkinElmer. Cells were maintained in DMEM medium supplemented with 10% FBS and 200 μg/mL of G418 at 37° C. and 5% CO2. The cells were cultured in antibiotic free medium for a period of 16-20 hours prior to the assay. All subsequent steps of the assay are performed at room temperature (22-24° C.). […] About 1500 cells per well were pre-incubated for 10 minutes with the compounds of the present invention before adding the agonist Adenosine at a high concentration (30 μM) for a total stimulation time of 30 minutes. […] The assays were conducted in a stimulation buffer containing 1×DMEM, 5 mM HEPES, 2% Human serum albumin (HSA), 100 μM Rolipram and 30 μM erythro-9-(2-hydroxy-3-nonyl) adenine (EHNA). Serial dilutions of compounds were made in stimulation buffer to achieve a final concentration of high micromolar in a reaction volume of 10 μL. The total reaction volume was 10 μL (5 μL of cells, 2.5 μL of antagonist and 2.5 μL of agonist). […] The stimulation was ended, and the reaction completed by adding 5 μL of 4× Eu-cAMP tracer working solution and 5 μL of 4× ULight-anti-cAMP working solution. The TR FRET signal was measured after 1-hour incubation using a Tecan M1000 or a PerkinElmer Victor Nivo plate reader.

[2] = target: T2, A2A receptor (Homo sapiens, UniProt P29274); experiment: A2aR antagonism IC50, cAMP TR-FRET in HEK-293 cells, high concentration of adenosine (30 μM); assay type: cell-based; details: HEK-293 cells expressing A2A receptor; agonist adenosine 30 μM; 2% HSA; inhibition of cAMP; read-out: A2AR IC50 (nM) (@30 μM Adenosine);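 also: compounds added 10 min before adenosine, then 30 min stimulation at room temperature in buffer with 100 µM rolipram and 30 µM EHNA, signal read 1 h after detection reagents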
T2 construct: host or cells: HEK-293
T2 sequence (P29274 whole entry): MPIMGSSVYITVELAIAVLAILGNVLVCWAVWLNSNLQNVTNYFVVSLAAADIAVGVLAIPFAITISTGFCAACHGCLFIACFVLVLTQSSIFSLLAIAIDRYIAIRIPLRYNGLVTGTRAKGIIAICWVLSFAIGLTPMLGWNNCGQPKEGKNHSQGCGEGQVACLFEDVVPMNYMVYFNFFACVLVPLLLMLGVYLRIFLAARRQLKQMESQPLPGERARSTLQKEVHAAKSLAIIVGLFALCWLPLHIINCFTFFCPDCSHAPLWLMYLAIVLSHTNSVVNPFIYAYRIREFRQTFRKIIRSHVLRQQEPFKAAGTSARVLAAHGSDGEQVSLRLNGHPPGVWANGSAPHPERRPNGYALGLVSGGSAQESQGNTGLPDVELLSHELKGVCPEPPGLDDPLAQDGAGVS
Procedure: as §1, §2

Row | IC50 [1] | IC50 [2] | Compound
1 | 2930 nM | 1670 nM | CCCc1c(C)nn2c(N)c(C#N)c(NCCc3cccc(CO)n3)nc12 [Example 157, 7-amino-5-((2-(6-(hydroxymethyl)397yridine-2-yl)ethyl)amino)-2-methyl-3-propylpyrazolo[1,5-a]pyrimidine-6-carbonitrile]
2 | > 15000 nM | 2160 nM | CCCc1c(C)nn2c(N)c(C#N)c(NCCc3ccn(C4CCC4CO)n3)nc12 (single isomer, unassigned; (+)) [Example 165a, (+)-7-amino-5-((2-(1-(2-(hydroxymethyl)cyclobutyl)-1H-pyrazol-3-yl)ethyl)amino)-2-methyl-3-propylpyrazolo[1,5-a]pyrimidine-6-carbonitrile]
3 | 9080 nM | 363 nM | CCc1c(C)nn2c(N)c(C#N)c(NCCc3ccn(C4(CNC(C)=O)CC4)n3)nc12 [Example 147, N-((1-(3-(2-((7-amino-6-cyano-3-ethyl-2-methylpyrazolo[1,5-a]pyrimidin-5-yl)amino)ethyl)-1H-pyrazol-1-yl)cyclopropyl)methyl) acetamide]
4 | 2610 nM | 506 nM | CCc1c(C)nn2c(N)c(C#N)c(NCCc3cccn(CCCN)c3=O)nc12 [Example 136, 7-amino-5-((2-(1-(3-aminopropyl)-2-oxo-1,2-dihydropyridin-3-yl)ethyl)amino)-3-ethyl-2-methylpyrazolo[1,5-a]pyrimidine-6-carbonitrile]
5 | 5640 nM | 79 nM | COCCn1cccc(CCNc2nc3c(Cl)c(C)nn3c(N)c2C#N)c1=O [Example 92, 7-amino-3-chloro-5-((2-(1-(2-methoxyethyl)-2-oxo-1,2-dihydropyridin-3-yl)ethyl)amino)-2-methylpyrazolo[1,5-a]pyrimidine-6-carbonitrile]
6 | 821 nM | 327 nM | CCc1c(C)nn2c(N)c(C#N)c(NCCc3cccn(CC[S+](C)[O-])c3=O)nc12 (single isomer, unassigned; (+)) [Example 144a, (+)7-amino-3-ethyl-2-methyl-5-((2-(1-(2-(methylsulfinyl)ethyl)-2-oxo-1,2-dihydropyridin-3-yl)ethyl)amino) pyrazolo[1,5-a]pyrimidine-6-carbonitrile]
7 | 2050 nM | 88 nM | Cc1nn2c(N)c(C#N)c(NCCc3cccn(CCCO)c3=O)nc2c1C [Example 138, 7-amino-5-((2-(1-(3-hydroxypropyl)-2-oxo-1,2-dihydropyridin-3-yl)ethyl)amino)-2,3-dimethylpyrazolo[1,5-a] pyrimidine-6-carbonitrile]
8 | 1070 nM | 392 nM | CCc1c(C)nn2c(N)c(C#N)c(NCCc3cccn(CCO)c3=O)nc12 [Example 108, 7-amino-3-ethyl-5-((2-(1-(2-hydroxyethyl)-2-oxo-1,2-dihydropyridin-3-yl)ethyl)amino)-2-methylpyrazolo[1,5-a]pyrimidine-6-carbonitrile]
9 | 1660 nM | 141 nM | CCc1c(C)nn2c(N)c(C#N)c(NCCc3cccn(CCSC)c3=O)nc12 [Example 142, 7-amino-3-ethyl-2-methyl-5-((2-(1-(2-(methylthio)ethyl)-2-oxo-1,2-dihydropyridin-3-yl)ethyl)amino)pyrazolo[1,5-a]pyrimidine-6-carbonitrile]
10 | > 15000 nM | 767 nM | Cc1nn2c(N)c(C#N)c(NCCc3cccn(CCN)c3=O)nc2c1Cl [Example 125, 7-amino-5-((2-(1-(2-aminoethyl)-2-oxo-1,2-dihydropyridin-3-yl)ethyl)amino)-3-chloro-2-methylpyrazolo[1,5-a] pyrimidine-6-carbonitrile]
11 | 5880 nM | 280 nM | Cc1nn2c(N)c(C#N)c(NCCc3ccn(C4CCC4CO)n3)nc2c1Br (stereo not shown) [Example 130, 7-amino-3-bromo-5-((2-(1-(2-(hydroxymethyl)cyclobutyl)-1H-pyrazol-3-yl)ethyl)amino)-2-methylpyrazolo[1,5-a]pyrimidine-6-carbonitrile]
12 | 1010 nM | 139 nM | CCc1c(C)nn2c(N)c(C#N)c(NCCc3cccc(C(C)O)n3)nc12 (racemic) [Example 100, 7-amino-3-ethyl-5-((2-(6-(1-hydroxyethyl)pyridin-2-yl)ethyl)amino)-2-methylpyrazolo[1,5-a] pyrimidine-6-carbonitrile]
13 | 1050 nM | 187 nM | CCc1c(C)nn2c(N)c(C#N)c(NCCc3cccn(CCCO)c3=O)nc12 [Example 113, 7-amino-3-ethyl-5-((2-(1-(3-hydroxypropyl)-2-oxo-1,2-dihydropyridin-3-yl)ethyl)amino)-2-methylpyrazolo[1,5-a]pyrimidine-6-carbonitrile]
14 | 2730 nM | 1230 nM | CCc1c(C)nn2c(N)c(C#N)c(NCCc3ccn(CCC[S+](C)[O-])n3)nc12 (single isomer, unassigned; (+)) [Example 162b, (+)-7-amino-3-ethyl-2-methyl-5-((2-(1-(3-(methylsulfinyl)propyl)-1H-pyrazol-3-yl)ethyl)amino)pyrazolo[1,5-a]pyrimidine-6-carbonitrile]
15 | 1620 nM | 628 nM | CCc1c(C)nn2c(N)c(C#N)c(NCCc3ccc(F)c(CO)n3)nc12 [Example 91, 7-amino-3-ethyl-5-((2-(5-fluoro-6-(hydroxymethyl)315yridine-2-yl)ethyl)amino)-2-methylpyrazolo[1,5-a]pyrimidine-6-carbonitrile]
16 |  | 456 nM | CCc1c(C)nn2c(N)c(C#N)c(NCCc3cccc(CNCCOC)n3)nc12 [Example 96, 7-amino-3-ethyl-5-((2-(6-(((2-methoxyethyl)amino)methyl)321yridine-2-yl)ethyl)amino)-2-methylpyrazolo[1,5-a]pyrimidine-6-carbonitrile]
17 | 10000 nM | 104 nM | Cc1nn2c(N)c(C#N)c(NCCc3ccn(C4(CO)CC4)n3)nc2c1C(F)(F)F [Example 94, 7-amino-5-((2-(1-(1-(hydroxymethyl)cyclopropyl)-1H-pyrazol-3-yl)ethyl)amino)-2-methyl-3-(trifluoromethyl) pyrazolo[1,5-a]pyrimidine-6-carbonitrile]
18 | 2050 nM | 68 nM | Cc1nn2c(N)c(C#N)c(NCCc3ccn(C4(CO)CC4)n3)nc2c1Br [Example 69, 7-amino-3-bromo-5-((2-(1-(1-(hydroxymethyl)cyclopropyl)-1H-pyrazol-3-yl)ethyl)amino)-2-methylpyrazolo[1,5-a]pyrimidine-6-carbonitrile]
19 | 7850 nM | 78 nM | Cc1nn2c(N)c(C#N)c(NCCc3ccn(C4CCCC4CN)n3)nc2c1Cl (stereo not shown) [Example 118, 7-amino-5-((2-(1-(2-(aminomethyl)cyclopentyl)-1H-pyrazol-3-yl)ethyl)amino)-3-chloro-2-methylpyrazolo[1,5-a] pyrimidine-6-carbonitrile]
20 | 2820 nM | 158 nM | CCc1cnn2c(N)c(C#N)c(NCCc3ccn(C4(CO)CC4)n3)nc12 [Example 71, 7-amino-3-ethyl-5-((2-(1-(1-(hydroxymethyl)cyclopropyl)-1H-pyrazol-3-yl)ethyl)amino) pyrazolo[1,5-a] pyrimidine-6-carbonitrile]
21 | > 15000 nM | > 15000 nM | CCc1c(C)nn2c(N)c(C#N)c(NCCc3ccnn3CCCO)nc12 [Example 110, 7-amino-3-ethyl-5-((2-(1-(3-hydroxypropyl)-1H-pyrazol-5-yl)ethyl)amino)-2-methylpyrazolo[1,5-a]pyrimidine-6-carbonitrile]
22 | 798 nM | 200 nM | CCc1c(C)nn2c(N)c(C#N)c(NCCc3ccn(C4CCC4CO)n3)nc12 (single isomer, unassigned; (+)) [Example 78, (+)-7-amino-3-ethyl-5-((2-(1-(2-(hydroxymethyl)cyclobutyl)-1H-pyrazol-3-yl)ethyl)amino)-2-methylpyrazolo[1,5-a]pyrimidine-6-carbonitrile]
23 | 4750 nM | 679 nM | Cc1nn2c(N)c(C#N)c(NCCc3cccn(CCCN)c3=O)nc2c1C [Example 141, 7-amino-5-((2-(1-(3-aminopropyl)-2-oxo-1,2-dihydropyridin-3-yl)ethyl)amino)-2,3-dimethylpyrazolo[1,5-a]pyrimidine-6-carbonitrile]
24 | 466 nM | 1420 nM | CCc1c(C)nn2c(N)c(C#N)c(NCCc3cccc(CO[C@@H]4CCOC4)n3)nc12 [Example 166, (R)-7-amino-3-ethyl-2-methyl-5-((2-(6-(((tetrahydrofuran-3-yl)oxy)methyl)pyridine-2-yl)ethyl)amino) pyrazolo[1,5-a]pyrimidine-6-carbonitrile]
25 |  | 248 nM | Cc1nn2c(N)c(C#N)c(NCCc3ccn(C4COCC4CO)n3)nc2c1C (racemic) [Example 132, (+−)-7-amino-5-((2-(1-(4-(hydroxymethyl)tetrahydrofuran-3-yl)-1H-pyrazol-3-yl)ethyl)amino)-2,3-dimethylpyrazolo[1,5-a]pyrimidine-6-carbonitrile]
26 | 3870 nM |  | Cc1nn2c(N)c(C#N)c(NCCc3cccc(CNCCO)n3)nc2c1C [Example 105, 7-amino-5-((2-(6-(((2-hydroxyethyl)amino)methyl)pyridin-2-yl)ethyl)amino)-2,3-dimethylpyrazolo[1,5-a]pyrimidine-6-carbonitrile]
